Source: ChEMBL document CHEMBL1127132, “Synthesis and biological activity of tetracyclic carbapenems” (1993)
Converted amounts (≈) assume the structure as drawn.

Legend:
Assay type in all cases: functional
Staphylococcus [1] = experiment: Compound was evaluated for antibacterial activity against Staphylococcus 25470 compared to imipenem
Staphylococcus aureus [2] = experiment: Compound was evaluated for antibacterial activity against Staphylococcus aureus 133 compared to imipenem
Proteus mirabilis = experiment: Compound was evaluated for antibacterial activity against Proteus mirabilis 1235 compared to imipenem
Staphylococcus [3] = experiment: Compound was evaluated for antibacterial activity against Staphylococcus 25455 compared to imipenem
Providencia rettgeri = experiment: Compound was evaluated for antibacterial activity against Proteus rettgeri 10007 compared to imipenem
Serratia [4] = experiment: Compound was evaluated for antibacterial activity against serratia 16002 compared to imipenem
Proteus vulgaris = experiment: Compound was evaluated for antibacterial activity against Proteus vulgaris N6 compared to imipenem
Morganella morganii = experiment: Compound was evaluated for antibacterial activity against Proteus morganii.932 compared to imipenem
Enterobacter cloacae [5] = experiment: Compound was evaluated for antibacterial activity against Enterob. cl.5744 compared to imipenem
Pseudomonas aeruginosa = experiment: Compound was evaluated for antibacterial activity against Pseudomonas aeruginosa F 41 compared to imipenem
Escherichia coli [6] = experiment: Compound was evaluated for antibacterial activity against Escherichia coli F14 compared to imipenem
Escherichia coli [7] = experiment: Compound was evaluated for antibacterial activity against Escherichia coli Neumann compared to imipenem
Serratia [8] = experiment: Compound was evaluated for antibacterial activity against serratia 16001 compared to imipenem
Acinetobacter sp. = experiment: (§1) Compound was evaluated for antibacterial activity against Acinetobacter 14601 compared to imipenem
Klebsiella [9] = experiment: Compound was evaluated for antibacterial activity against Klebsiella 57USA compared to imipenem
Klebsiella [10] = experiment: Compound was evaluated for antibacterial activity against Klebsiella 63 compared to imipenem
Enterobacter cloacae [11] = experiment: Compound was evaluated for antibacterial activity against Enterobacter cloacae 5744 compared to imipenem
Staphylococcus [12] = experiment: Tested for antibacterial activity against Staphylococcus 25470 compared to imipenem
Acinetobacter = experiment: as §1
Staphylococcus aureus [13] = experiment: Compound was evaluated for antibacterial activity against Staphylococcus aurues 133 compared to imipenem

| SMILES | MIC (Staphylococcus [1]) | MIC (Staphylococcus aureus [2]) | MIC (Proteus mirabilis) | MIC (Staphylococcus [3]) | MIC (Providencia rettgeri) | MIC (Serratia [4]) | MIC (Proteus vulgaris) | MIC (Morganella morganii) | MIC (Enterobacter cloacae [5]) | MIC (Pseudomonas aeruginosa) | MIC (Escherichia coli [6]) | MIC (Escherichia coli [7]) | MIC (Serratia [8]) | MIC (Acinetobacter sp.) | MIC (Klebsiella [9]) | MIC (Klebsiella [10]) | MIC (Enterobacter cloacae [11]) | MIC (Staphylococcus [12]) | MIC (Acinetobacter) | MIC (Staphylococcus aureus [13]) |
| --- | --- | --- | --- | --- | --- | --- | --- | --- | --- | --- | --- | --- | --- | --- | --- | --- | --- | --- | --- | --- |
| C[C@@H](O)[C@H]1C(=O)N2C(C(=O)O)=C(SCCNC=N)C[C@H]12 [IMIPENEM ANHYDROUS] | 32 µg/mL (≈ 107 µM) | < 0.25 µg/mL | 4 µg/mL (≈ 13.4 µM) | < 0.25 µg/mL | 2 µg/mL (≈ 6.68 µM) | 0.5 µg/mL (≈ 1.67 µM) | 0.5 µg/mL (≈ 1.67 µM) | 0.5 µg/mL (≈ 1.67 µM) | 0.5 µg/mL (≈ 1.67 µM) | 2 µg/mL (≈ 6.68 µM) | < 0.25 µg/mL | < 0.25 µg/mL | < 0.25 µg/mL | < 0.25 µg/mL | < 0.25 µg/mL | < 0.25 µg/mL |  |  |  |  |
| C[C@@H](O)[C@H]1C(=O)N2C(C(=O)[O-])=C3c4ccccc4CCC[C@@H]3[C@H]12.[Na+] |  | 0.5 µg/mL | 0.5 µg/mL | 0.5 µg/mL | 16 µg/mL | 64 µg/mL | 1 µg/mL | 16 µg/mL |  | 128 µg/mL | 16 µg/mL | 2 µg/mL | 64 µg/mL |  | 1 µg/mL | 16 µg/mL | 32 µg/mL | 128 µg/mL | 64 µg/mL |  |
| C[C@@H](O)[C@H]1C(=O)N2C(C(=O)[O-])=C3c4ccsc4CC[C@@H]3[C@H]12.[Na+] | 32 µg/mL |  | 1 µg/mL | 1 µg/mL | 4 µg/mL | 32 µg/mL | < 0.25 µg/mL | 2 µg/mL |  | 128 µg/mL | 8 µg/mL | 1 µg/mL | 32 µg/mL |  | 4 µg/mL | 4 µg/mL | 8 µg/mL |  | 16 µg/mL | 1 µg/mL |
| C[C@@H](O)[C@H]1C(=O)N2C(C(=O)[O-])=C3c4ccccc4SC[C@@H]3[C@H]12.[Na+] | 8 µg/mL | < 0.25 µg/mL | < 0.25 µg/mL | < 0.25 µg/mL | 2 µg/mL | 16 µg/mL | < 0.25 µg/mL | 1 µg/mL |  | 128 µg/mL | 8 µg/mL | 0.5 µg/mL | 8 µg/mL |  | 4 µg/mL | 2 µg/mL | 4 µg/mL |  | 4 µg/mL |  |
